Each compound was assayed against T1, recombinant human 11 β-HSD1 (Homo sapiens, UniProt P28845) (assay: 11 β-HSD1 SPA Assay (Scintillation Proximity Assay)).
T1 construct: made in house; host or cells: E. coli
Assay type: biochemical
Method in brief: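 Scintillation proximity read-out of cortisol formed from 40 nM [3H]cortisone by purified recombinant human enzyme (30-100 nM, E. coli) with 1 mM NADPH, pH7.4, 2 hours at room temperature; beads with cortisol antibody and glycyrrhetinic acid stop the reaction, read next day. IC50 derived from inhibition normalised to background and maximal wells.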

T1 sequence (P28845 whole entry): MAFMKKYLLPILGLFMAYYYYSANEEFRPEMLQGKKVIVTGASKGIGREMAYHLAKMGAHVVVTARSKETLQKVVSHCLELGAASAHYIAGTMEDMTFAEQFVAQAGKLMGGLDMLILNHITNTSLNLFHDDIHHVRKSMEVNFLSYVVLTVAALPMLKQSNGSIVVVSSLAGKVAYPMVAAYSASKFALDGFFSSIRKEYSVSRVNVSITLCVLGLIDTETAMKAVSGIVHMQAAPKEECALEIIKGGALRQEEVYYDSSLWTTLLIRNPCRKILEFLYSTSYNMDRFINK

`NC(=O)c1ccc(N2[C@@H]3CC[C@H]2C[C@@H](NC(=O)C2(c4ccc(Cl)c(Cl)c4)CC2)C3)nc1` [Example 103, 6-[3-endo-({[1-(3,4-dichiorophenyl)cyclopropyl]carbonyl}amino)-8-azabicyclo[3.2.1]oct-8-yl]pyridine-3-carboxamide] and `CC(C)(Oc1ccc(Cl)c(Cl)c1)C(=O)N[C@H]1C[C@H]2CC[C@@H](C1)N2c1ccc(C(=O)NCC(F)(F)F)cn1` [Example 83, 6-[3-endo-({2-[(3,4-dichlorophenyl)oxy]-2-methylpropanoyl}amino)-8-azabicyclo[3.2.1]oct-8-yl]-N-(2,2,2-trifluoroethyl)pyridine-3-carboxamide] cannot be ordered by IC50: < 200 nM for the first, < 200 nM for the second.

`CC(C)(Oc1ccc(F)c(Cl)c1Cl)C(=O)N[C@H]1C[C@H]2CC[C@@H](C1)N2c1ccc(C(=O)NCC(F)(F)F)cn1` [Example 100, 6-[3-endo-({2-[(2,3-dichloro-4-fluorophenyl)oxy]-2-methylpropanoyl}amino)-8-azabicyclo[3.2.1]oct-8-yl]-N-(2,2,2-trifluoroethyl)pyridine-3-carboxamide] and `CC(C)c1cc(Cl)ccc1OC(C)(C)C(=O)N[C@H]1C[C@H]2CC[C@@H](C1)N2c1ccc(C(=O)NCC(F)(F)F)cn1` [Example 353, 6-[3-endo-({2-[4-chloro-2-(propan-2-yl)phenoxy]-2-methylpropanoyl}amino)-8-azabicyclo[3.2.1]oct-8-yl]-N-(2,2,2-trifluoroethyl)pyridine-3-carboxamide] cannot be ordered by IC50: < 200 nM for the first, < 200 nM for the second.

`CC(C)(Oc1ccc(F)c(C(F)(F)F)c1)C(=O)N[C@H]1C[C@H]2CC[C@@H](C1)N2c1ccc(C(N)=O)cn1` [Example 187, 6-{3-endo-[(2-{[4-fluoro-3-(trifluoromethyl)phenyl]oxy}-2-methylpropanoyl)amino]-8-azabicyclo[3.2.1]oct-8-yl}pyridine-3-carboxamide] and `CC(C)(Oc1cc(C(F)(F)F)ccc1F)C(=O)N[C@H]1C[C@H]2CC[C@@H](C1)N2c1ccc(C(N)=O)cn1` [Example 189, 6-{3-endo-[(2-{[2-fIuoro-5-(trifluoromethyl)phenyl]oxy}-2-methylpropanoyl)amino]-8-azabicyclo[3.2.1]oct-8-yl}pyridine-3-carboxamide] cannot be ordered by IC50: < 200 nM for the first, < 200 nM for the second.

`CC(C)(Oc1cccc2cc[nH]c12)C(=O)N[C@H]1C[C@H]2CC[C@@H](C1)N2c1ccc(C(=O)NCC(F)(F)F)cn1` [Example 390, 6-(3-endo-{[2-(1H-indol-7-yloxy)-2-methylpropanoyl]amino}-8-azabicyclo[3.2.1]oct-8-yl)-N-(2,2,2-trifluoroethyl)pyridine-3-carboxamide] and `CC(C)(Oc1cc(C(F)(F)F)ccc1F)C(=O)N[C@H]1C[C@H]2CC[C@@H](C1)N2c1ccc(C(=O)NCC(F)(F)F)cn1` [Example 190, 6-{3-endo-[(2-{[2-fluoro-5-(trifluoromethyl)phenyl]oxy}-2-methylpropanoyl)amino]-8-azabicyclo[3.2.1]oct-8-yl}-N-(2,2,2-trifiuoroethyl)pyridine-3-carboxamide] cannot be ordered by IC50: < 200 nM for the first, < 200 nM for the second.

`C=C(C)c1cc(OC(C)(C)C(=O)N[C@H]2C[C@H]3CC[C@@H](C2)N3c2ccc(C(=O)NCC(F)F)cn2)c(Cl)cc1Cl` [Example 478, 6-[3-endo-({2-[2,4-dichloro-5-(prop-1-en-2-yl)phenoxy]-2-methylpropanoyl}amino)-8-azabicyclo[3.2.1]oct-8-yl]-N-(2,2-difluoroethyl)pyridine-3-carboxamide] and `CC(C)(Oc1ccc(Cl)cc1OC(F)F)C(=O)N[C@H]1C[C@H]2CC[C@@H](C1)N2c1ccc(C(=O)NCC(F)F)cn1` [Example 469, 6-[3-endo-({2-[4-chloro-2-(difluoromethoxy)phenoxy]-2-methylpropanoyl}amino)-8-azabicyclo[3.2.1]oct-8-yl]-N-(2,2-difluoroethyl)pyridine-3-carboxamide] cannot be ordered by IC50: < 200 nM for the first, < 200 nM for the second.

`CC(C)(Oc1ccc(F)cc1Cl)C(=O)NC1CC2CCC(C1)N2c1ccc(C(=O)NCC(O)C(F)(F)F)cn1` (stereo not drawn) [Example 457, 6-(3-endo-{[2-(2-chloro-4-fluorophenoxy)-2-methylpropanoyl]amino}-8-azabicyclo[3.2.1]oct-8-yl)-N-(3,3,3-trifluoro-2-hydroxypropyl)pyridine-3-carboxamide] and `C[C@H](NC(=O)c1ccc(N2C3CCC2CC(NC(=O)C(C)(C)Oc2ccc(Cl)cc2Cl)C3)nc1)C(F)(F)F` (stereo partly drawn) [Example 374, 6-(3-endo-{[2-(2,4-dichlorophenoxy)-2-methylpropanoyl]amino}-8-azabicyclo[3.2.1]oct-8-yl)-N-[(2S)-1,1,1-trifluoropropan-2-yl]pyridine-3-carboxamide] cannot be ordered by IC50: < 200 nM for the first, < 200 nM for the second.

`CC(C)(Oc1cc(Cl)c(Cl)cc1Cl)C(=O)N[C@H]1C[C@H]2CC[C@@H](C1)N2c1ccc(S(N)(=O)=O)cn1` [Example 198, N-{8-[5-(aminosulfonyl)pyridin-2-yl]-8-azabicyclo[3.2.1]oct-3-endo-yl}-2-methyl-2-[(2,4,5-trichlorophenyl)oxy]propanamide] and `CC(C)(Oc1ccc(Cl)cc1Cl)C(=O)N[C@H]1C[C@H]2CC[C@@H](C1)N2c1ccc(S(C)(=O)=O)cn1` [Example 140, 2-[(2,4-dichlorophenyl)oxy]-2-methyl-N-{8-[5-(methylsulfonyl)pyridin-2-yl]-8-azabicyclo[3.2.1]oct-3-endo-yl}propanamide] cannot be ordered by IC50: < 200 nM for the first, < 200 nM for the second.

`CC(C)(Oc1ncc(Cl)cc1Cl)C(=O)N[C@H]1C[C@H]2CC[C@@H](C1)N2c1ccc(S(C)(=O)=O)cn1` [Example 193, 2-[(3,5-dichloropyridin-2-yl)oxy]-2-methyl-N-{8-[5-(methylsulfonyl)pyridin-2-yl]-8-azabicyclo[3.2.1]oct-3-endo-yl}propanamide] and `CC(C)(Oc1ccc(C(F)(F)F)cc1)C(=O)N[C@H]1C[C@H]2CC[C@@H](C1)N2c1ccc(S(N)(=O)=O)cn1` [Example 244, N-{8-[5-(aminosulfonyl)pyridin-2-yl]-8-azabicyclo[3.2.1]oct-3-endo-yl}-2-methyl-2-{[4-(trifluoromethyl)phenyl]oxy}propanamide] cannot be ordered by IC50: < 200 nM for the first, < 2000 nM for the second.

`CC(C)(C(=O)N[C@H]1C[C@H]2CC[C@@H](C1)N2c1ccc(C(=O)NC2CC2)cn1)c1ccc(Cl)cc1` [Example 20, 6-(3-endo-{[2-(4-chlorophenyl)-2-methylpropanoyl]amino}-8-azabicyclo[3.2.1]oct-8-yl)-N-cyclopropyipyridine-3-carboxamide] and `CC(C)(Oc1ccc(Cl)cc1Cl)C(=O)N[C@H]1C[C@H]2CC[C@@H](C1)N2c1ccc(C(=O)NCC(F)(F)F)cc1` [Example 110, 4-[3-endo-({2-[(2,4-dichlorophenyl)oxy]-2-methylpropanoyl}amino)-8-azabicyclo[3.2.1]oct-8-yl]-N-(2,2,2-trifluoroethyl)benzamide] cannot be ordered by IC50: < 200 nM for the first, < 200 nM for the second.

`CC(C)(Oc1ccc(C(F)(F)F)cn1)C(=O)N[C@H]1C[C@H]2CC[C@@H](C1)N2c1ccc(S(N)(=O)=O)cc1` [Example 192, N-{8-[4-(aminosulfonyl)phenyl]-8-azabicyclo[3.2.1]oct-3-endo-yl}-2-methyl-2-{[5-(trifluoromethyl)pyridin-2-yl]oxy}propanamide] and `CC(C)(Oc1ccc(Cl)cc1C(F)(F)F)C(=O)N[C@H]1C[C@H]2CC[C@@H](C1)N2c1ccc(S(C)(=O)=O)cc1` [Example 284, 2-{[4-chloro-2-(trifluoromethyl)phenyl]oxy}-2-methyl-N-{8-[4-(methylsulfonyl)phenyl]-8-azabicyclo[3.2.1]oct-3-endo-yl}propanamide] cannot be ordered by IC50: < 2000 nM for the first, < 200 nM for the second.

Source: patent publication US8163771B2, “11 β-HSD1 modulators” (Exelixis, Inc., priority 2008, dated 2012)
